“Also recorded” adds a separate entry of the source.

We go through 2 compounds from patent US11911404B2, “Fucosylation and immune surveillance in melanoma” (H. LEE MOFFITT CANCER CENTER AND RESEARCH INSTITUTE, INC., priority 2017, dated 2024).

For assay [1], the system named is RPS3. As to the kind of experiment: RPS3 fucosylation by lectin pull-down after cellular stressors. It counts as cell-based, human. The conditions noted are these: melanoma cells treated 24-48 h, lectin PD (FIG. 12). The text has this: Specifically, (11A) RPS3 level in increased in melanoma cells relative to primary melanocytes (HEMN, human epidermal melanocytes). (11B) RPS3 is increased in melanoma through progression in human samples by TMA. TMA stained and analyzed by AQUA at Moffitt Cancer Center Department of Clinical Testing Development Core Facility. (11C) Nuclear RPS3 level increases with stage in matched primary and metastatic (MET) samples relative to HEMN cells (cell fractions analyzed by western blot [left]; cells analyzed by immunofluorescence [right]). (11D) Expression of RPS3-mDDK in vertical growth phase cells confers behavior associated with metastatic disease. Increased anchorage-independent growth [left], increased motility [right]. It was noted that Fucosylated RPS3 level increases in response to cellular stressors. Melanoma cells treated for 24-48 h with serum deprivation (SD), thapsigargin (T, thap) or mutant BRAF-inhibitor (Plexxikon, PLX) and assayed for RPS3 fucosylation by lectin PD (FIG. 12).

Assay [2] has as its system SW1 mouse melanoma tumors. In words: Flow cytometric analysis of tumor-infiltrating lymphocytes in SW1 tumors. It counts as in vivo. The conditions noted are these: L-fucose treatment, CD4+ T cell-depleted mice (FIG. 4D). (Flow cytometry measures light scatter and fluorescence of single cells or particles in a stream.)
For assay [3], the system named is mouse melanoma model. As to the kind of experiment: Mouse melanoma model, dietary fucose supplementation: tumor growth and metastasis. The class given is in vivo. Here is the method: (§1) To determine whether dietary or genetic modulation of fucosylation affects tumor growth and metastasis, we previously studied a mouse melanoma model in which tumor fucosylation was increased either by dietary supplementation (FIG. 2A) with 100 mM fucose or by overexpressing mouse FUK (FIG. 2B). […] To determine whether fucosylation affects tumor infiltration by immune cells, Immunofluorescent staining analysis of CD45 (general leukocyte marker, red) and DAPI (blue) was performed (FIG. 2C). To determine whether fucosylation affects tumor infiltration by NK cells, immunofluorescent staining analysis for DX5 (an NK cell marker, red) and DAPI (blue) was performed (FIG. 2D). Both NK cells and CD4+ T cells were elevated in samples from fucose supplemented mice.

In assay [4] the test system is SW1 mouse melanoma cells. As to the kind of experiment: SW1 mouse melanoma tumor growth in C3H mice fed control or L-fucose water, with or without CD4+/CD8+ T cell depletion. It counts as in vivo. Here is the method: (§2) To determine which immune cell populations were affected by L-fucose, another mouse melanoma model treated with control or L-fucose-supplemented water was used. First, 1.25×10^6 SW1 mouse melanoma cells were injected into the back right flanks of the mice and allowed the tumors to grow to 150 mm^3. At 150 mm^3 (14 days), 100 mM L-fucose was administered via the drinking water to half of the mice. Tumor growth was monitored (FIGS. 3A and 3B). Total and specific subpopulations of tumor-infiltrating lymphocytes were assessed by cell flow cytometric analysis (FIGS. 3C and 3D). Assessed populations included F4/80 (macrophage)-, Gr-1 (MDSCs)-, Cd11c (Dendritic cells)-, and DX5 (NK cells)-positive cells. For T-cells, we probed for CD3 (general T-cell marker) and further for CD4 and CD8 (for those T cell subpopulations). Of the CD4-positive cells, CD25 positive cells was used to elucidate the T regulatory cells. […] Both CD4 and CD8 positive T cells (CD3+ cells) increased in response to fucose. However, myeloid derived suppressor cells (MDSCs) decreased in response to dietary fucose supplementation.
This SW1 melanoma tumor/C3H mouse isogenic model was recapitulated to profile—in detail—tumor-infiltrating immune populations. >65% reduced tumor growth was observed during dietary L-fucose supplementation (FIG. 4A). […]

The test system of assay [5] is SW1 mouse melanoma tumors. In words: Flow cytometric analysis of tumor-infiltrating lymphocytes in SW1 tumors. The conditions noted are these: for tumor-infiltrating CD4+ and CD8+ T cells: dietary fucose vs control diet. It counts as in vivo. The method, then: as §2
This SW1 melanoma tumor/C3H mouse isogenic model was recapitulated to profile—in detail—tumor-infiltrating immune populations. >65% reduced tumor growth was observed during dietary L-fucose supplementation (FIG. 4A). […] Although most tumor-suppressive immune cell types were increased in the fucosylation-high, smaller tumors, tumor-infiltrating CD4+ and CD8+ T cells were most increased-doubled-in these tumors compared to control diet tumors (FIG. 4B, left and right). […] The presence and cytolytic activity of CD4+ T cells in tumors has been correlated with better patient survival rates and increased responsiveness to immunotherapies, respectively.

In assay [6] the test system is 1205Lu melanoma cells. In words: LDH-release cytotoxicity assay, NK cell co-culture with pre-treated melanoma cells. The class given is cell-based, human. The conditions noted are these: 1205Lu cells pre-treated with 250 μM, 8 h co-culture. Here is the method: After 8 h, LDH levels released in the media were measured. *=p 0.02; •=p<0.001. FIGS. 5C and 5D show Immunoblot analysis using AAL lectin (another fucose-binding lectin) was performed to confirm the effects of FUTi (C) or L-fucose (D) on 1205Lu cells (96 h treatment). (•: p-value≥0.02)(*: p-value≥0.002).
The possibility that tumor fucosylation can directly activate the tumor cell-killing activity of NK cells was explored. To assay for this possibility, a lactate dehydrogenase (LDH)-release-based assay was used in which the fucosylation of LU1205 melanoma cells was modulated prior to co-culture with NK cells. Specifically, primary NK cells isolates (5A) or immortalized NK92 cell line (5B) were co-cultured with 1205Lu melanoma cells that were pre-treated with DMSO, 250 μM pan-fucosyltransferase inhibitor (FUTi), or 250 μM L-fucose for 8 hours. Non-radioactive LDH-release cytotoxicity assay was performed to measure extent of NK cell-mediated killing. […] (•: p-value≥0.02) (*: p-value≥0.002).

Assay [7] relates to melanoma tumors. In words: Immunofluorescent staining of tumors for immune cell infiltration (CD45, DX5). It counts as in vivo, mouse. The conditions noted are these: for infiltration of tumors by CD45+ immune cells (leukocytes) and NK cells: dietary fucose supplementation. The method, then: as §1
The subject of assay [8] is HLA-DRB1. As to the kind of experiment: Flow cytometry of cell surface presentation, normalized to PKH26. The class given is cell-based, human. The conditions noted are these: WM793 cells, L-fucose treatment (FIG. 16B). The method, then:
[…] Stained cells were subjected to flow cytometric analyses and quantitation of protein signal/PKH26 signal to quantitate protein per relatice surface area.
FIGS. 16A and 16B show HLA-DRB1 is fucosylated on N48, and fucosylation promotes its cell surface presentation. […] AAL or HLA-DRB1 signals were normalized to PKH26 (total membrane stain).
To determine molecular mechanisms underlying the effects of fucosylation, a click-chemistry-based proteomic screen was performed to identify all fucosylated proteins in melanoma cells. 2 fucosylated immunomodulatory proteins, HLA-A and HLA-DRB1, were identified in melanoma cells. Fucose-binding lectin pulldown and immunoblot analysis confirmed the i) the expression and ii) the fucosylation of these 2 HLA proteins in melanoma cells, and further, indicate that their fucosylation is reduced when comparing patient-matched primary vs. metastatic cell lines (FIGS. 6A & 6C). The proximity ligation analysis technique, a cutting edge technique conventionally implemented to visualize 2 directly interacting proteins or post-translationally modified species of specific proteins when antibodies for the modifications are available (e.g., phosphorylated Tyr using an anti-phospho-Tyr antibody). […]

Assay [9] deals with SW1 mouse melanoma. As to the kind of experiment: SW1 tumor growth in mice fed ±L-fucose and treated with anti-CTLA4 or anti-PD1. It counts as in vivo. The conditions noted are these: SW1/C3H/HeJ model, oral 100 mM L-fucose from day 14; antibodies 20 mg/kg twice weekly. Here is the method: SW1 tumor growth curves in mice fed±100 mM L-fucose treated with either control (PBS) or […] (17A) or α-PD1 (17B). Combinations are color-coded as indicated. N=8 mice per condition. L-fucose was administered in the water starting on day 14 (refreshed twice weekly); α-CTLA4 or α-PD1 was administered (20 mg/kg each) twice weekly starting day 14. Compared with PBS control: #: p<0.001; *: p<0.05:
(§3) Fucosylation of HLA-DRB1 occurs on amino acid N48 (mutation to G abolishes interaction with fucose-binding AAL lectin) (FIG. 16A). Increasing fucosylation (L-fucose treatment) promotes cell surface abundance of HLA-DRB1 (which is expected to increase CD4^+ T cell activation) (FIG. 16B). […] A lectin-mediated proximity ligation technique was developed to visualize fucosylated HLA-DRB1 in cells and tissues (FIG. 18).

The test system of assay [10] is SW1 mouse melanoma. In words: Growth of control, H2K1- or IEβ-knocked down SW1 tumors in mice fed ±100 mM L-fucose water. It counts as in vivo.
Text: N=7 mice/condition. •:p<0.01. […] (*initiate L-fucose).
as §3

For `C/C=C(/C)C(=O)O[C@H]1C(C)=C2[C@H]([C@@H]1OC(=O)CCCCCCC)[C@@](C)(OC(C)=O)C[C@H](OC(=O)CCC)[C@@]1(O)[C@H]2OC(=O)[C@@]1(C)O` [thapsigargin], the “fucosylated RPS3 level” value in [1] is recorded as “increases”.
Regarding `C[C@H](O)[C@@H](O)[C@@H](O)[C@H](O)C=O` [L-fucose], the “numbers of intratumoral CD8+ T cells, CD11c+ dendritic cells and NK cells” value in assay [2] was “reduced numbers”. For the same compound, the “reduction in tumor growth” value in assay [3] (L-fucose supplementation, earlier model) is on record as above 50%. In assay [3] (dietary L-fucose supplementation, mouse models), the “block of tumor growth and metastasis” value is above 50%. Further, the tumor suppression result in assay [3] (dietary supplementation with 100 mM fucose (FIG. 2A)) was “increased tumor suppression”. In addition, the “L-fucose-triggered tumor suppression after loss of CD4+ T cells” value in assay [4] (CD4+ T cell-immunodepleted mice (FIG. 4C left)) is on record as “abrogated tumor suppression”. Besides, the reduced tumor growth in assay [4] (SW1/C3H model, dietary 100 mM L-fucose in water, 45 days (FIG. 4A)) is above 65%. Moreover, the “increase of NK cells, T cells (CD4+ and CD8+), dendritic cells and macrophage” value in [5] (administration of fucose) is given as 10-50 fold. The “overall immune infiltration of tumors” value in [5] (dietary fucose supplementation, 100 mM in drinking water) was “increases”. Besides, in assay [5] (dietary fucose supplementation, listed as fucose), the “myeloid derived suppressor cells (MDSCs) in tumors” value was “decrease”. The “tumor-infiltrating CD4+ and CD8+ T cells” value in [5] is reported as “doubled”; in [5] (listed as fucose), “increase”. Also, the “infiltrating immune cells per gram of tumor vs control diet” value in assay [5] (tumors from L-fucose-supplemented mice) is given as 10-50 fold. In assay [6], the “NK cell-mediated tumor-cell killing (LDH release), immortalized human NK cells” value is on record as “sufficient to induce the tumor-cell killing activity”. Moreover, the “NK cell-mediated tumor-cell killing (LDH release), primary human NK cells” value in assay [6] is “sufficient to induce the tumor-cell killing activity”. For the same compound, the “infiltration of tumors by CD45+ immune cells (leukocytes) and NK cells” value in [7] is recorded as “significant increases”; in assay [7] (listed as fucose), “increased”. The “NK cells and CD4+ T cells in tumor samples” value in assay [7] (fucose supplemented mice, immunofluorescence (FIGS. 2C, 2D)) is “elevated”. In addition, the “cell surface abundance of HLA-DRB1” value in [8] is “promotes”. In addition, the “suppression of melanoma growth compared with checkpoint antibodies” value in [9] is reported as “more significantly than anti-CTLA4 or anti-PD1 alone; also recorded: more tumor suppressive than α-CTLA4 or α-PD1 alone”. For the same compound, the “difference in ±L-fuc tumor growth curves in H2K1 knocked-down tumors” value in [10] (shH2K1, ±100 mM L-fucose water) is “not significant”. Moreover, the “L-fucose-triggered tumor suppression in IEβ (HLA-DRB1 ortholog) knocked-down tumors” value in assay [10] (shIEβ vs control shRNA (SCR), ±100 mM L-fucose water) is recorded as “abrogates; also recorded: not significant”.
